Reference: patent US20240123080A1, “CYTOTOXIC COMPOUNDS AND CONJUGATES THEREOF” (Seagen Inc., priority 2022, published 2024)
*1 amine or outer side, *2 acyl side, *3 side chain or, on linkers, in order; H or OH if unused. Where a SMILES comes first, the peptide text is derived from it. [ ]: non-standard residue; d: D form. The star is where a group is joined. Dolaproine = CO[C@@H]([C@@H]1CCCN1)[C@@H](C)C(=O)O; Propanoyl(3-maleimido) = O=C1C=CC(=O)N1CCC(=O)*; Dil = CC[C@H](C)[C@H](NC)[C@@H](CC(=O)O)OC; PABC = O=C(OCc1ccc(N[*:1])cc1)[*:2]; Doe = c1ccc(C[C@H](N*)c2nccs2)cc1; X1 = C[C@@H](N*)[C@@H](O)c1ccccc1; Phe(ol) = N[C@H](CO)Cc1ccccc1; NHPhenethyl = c1ccc(CCN*)cc1; NMeV = CN[C@H](C(=O)O)C(C)C; X2 = CN(C)[C@@H](CO)C(=O)*; NMeS = CN[C@@H](CO)C(=O)O

Assays:
[1] = system: A2058; experiment: In vitro cytotoxicity of auristatin ADCs and free drugs (CellTiter-Glo, 96 h); assay type: cell-based; settings: for IC50: Homo sapiens, A2058, 96 h, read-out: IC50, A2058; for IC50, A2058: ADC, 96 h
Procedure: (§1) Cancer cells were counted and plated in 40 μL complete growth media in 384-well, white-walled tissue culture treated plates (Corning). Cell plates were incubated at 37° C. and with 5% CO2 overnight to allow the cells to equilibrate. Stock solutions containing ADCs or free drugs were serially diluted in RPMI-1640+20% fetal bovine serum (FBS). 10 μL of each concentration were then added to each cell plate in duplicate. Cells were then incubated at 37° C. and with 5% CO2 for 96 hours, upon which, the cell plates were removed from the incubator and allowed to cool to room temperature for 30 minutes prior to analysis. CellTiter-Glo® luminescent assay reagent (Promega Corporation, Madison, WI) was prepared according to Promega's protocol. 10 μL of CellTiter-Glo® were added to assay plates using a Formulatrix Tempest liquid handler (Formulatrix) and the plates were protected from light for 30 minutes at room temperature. The luminescence of the samples was measured using an EnVision Multimode plate reader (Perkin Elmer, Waltham, MA). Raw data were analyzed in Graphpad Prism (San Diego, CA) using a nonlinear, 4-parameter curve fit model [Y=Bottom+(Top-Bottom)/(1+10^((LogEC50−X)*HillSlope))]. Results are reported as IC50 values, which are defined as the concentration of ADC or free drug required to reduce cell viability to 50%.

[2] = system: CALU1; experiment: as above; assay type: cell-based; settings: for IC50: Homo sapiens, Calu-1, 96 h, read-out: IC50, CALU1; for IC50, CALU1: ADC, 96 h
Procedure: as §1

[3] = system: SKMEL28; experiment: as above; assay type: cell-based; settings: for IC50: Homo sapiens, SK-MEL-28, 96 h, read-out: IC50, SKMEL28
Procedure: as §1

[4] = system: SKMEL5; experiment: as above; assay type: cell-based; settings: for IC50: Homo sapiens, SK-MEL-5, 96 h, read-out: IC50, SKMEL5; for IC50, SKMEL5: ADC, 96 h
Procedure: as §1

[5] = system: DEL, Karpas299, and L540cy cell lines; experiment: Average cytotoxicity of DEL, Karpas299, and L540cy cell lines; assay type: cell-based; settings: read-out: Avg IC50 Free drug
Procedure: (§2) The cytotoxicity of free drugs and drug conjugates were measured by a cell proliferation assay employing the protocol described in Promega Corp. Technical Bulletin TB288; and Mendoza et al., 2002, Cancer Res. 62:5485-5488), the methods of which are specifically incorporated by reference herein. Briefly, an aliquot of 40 μl of cell culture containing about 400 cells in medium is deposited in each well of a 384-well, opaque-walled plate. A 10 μL aliquot of free drug or drug conjugate is added to the experimental wells and incubated for 96 h and are then equilibrated to room temperature for approximately 30 minutes whereupon a volume of CellTiter-Glo™ reagent equal to the volume of cell culture medium present in each well is added. The contents are mixed for 2 minutes on an orbital shaker to induce cell lysis and the plate is incubated at room temperature for 10 minutes to stabilize the luminescence signal for recordation.
Tolerability of an ADC comprising the compound of Example 8 of the present application was compared to tolerability of ADCs comprising the known compounds MMAE and MMAF. Without being bound by theory, the improvements in tolerability are believed to be related to reduced toxicities in the bone marrow and in the liver that are a result of the OH moieties on the compound of Example 8.

[6] = LogD, miniaturized 1-octanol/pH 7.4 buffer shake flask method, LC/MS/MS; assay type: physicochemical
Procedure: The LogD (distribution coefficient) of the compounds was measured using a miniaturized 1-octanol/pH 7.4 buffer shake flask method followed by LC/MS/MS analysis. Values were determined by measuring the compound partitioned in the organic and buffered layers.

[7] = system: L540cy HL; experiment: In vitro cytotoxicity, cell proliferation assay (CellTiter-Glo, 96 h); assay type: cell-based; settings: auristatin free drug
Procedure: as §2

[8] = system: Karpas299 NHL; experiment: as above; assay type: cell-based; settings: Homo sapiens, KARPAS-299, auristatin free drug
Procedure: as §2

[9] = system: DEL ALCL; experiment: as above; assay type: cell-based; settings: auristatin free drug
Procedure: as §2

[10] = system: Sprague Dawley rats; experiment: In vivo rat safety study of non-binding (h00) ADCs, hematology and clinical chemistry; settings: ADC of the Drug-Linker
Procedure: In vivo rat safety studies were done in naive female Sprague Dawley rats (Envigo). Studies had 3 animals/group/timepoint and included a vehicle control group (1×PBS pH 7.4). Animals were administered a single dose of 15 or 80 mg/kg of an h00 ADC (DAR=4) via intravenous injection. Blood was drawn at days 5 and day 8. Blood was sampled under isoflurane anesthesia via the jugular vein for periodic hematology analysis on the Sysmex XT-2000iV. At necropsy, blood was collected from the caudal vena cava for hematology and clinical chemistry panels. Clinical chemistry was analyzed on a Beckman Coulter AU680.

[11] = system: cynomolgus monkeys; experiment: In vivo toxicology study of hCR011 ADCs at 5 mg/kg (Example 98); set-up: species or system cynomolgus monkey; settings: DAR=4
Procedure: In vivo toxicology studies were done in naive cynomolgus monkeys. Studies had 2 animals/group/timepoint of hCR011-MC-VC-MMAE (DAR=4) or hCR011-Example 60 (DAR=4). Animals were administered four weekly doses of 5 mg/kg of ADC via intravenous (slow bolus) injection.

[12] = system: HCC2218; experiment: In vitro cytotoxicity of auristatin ADCs and free drugs (CellTiter-Glo, 96 h); assay type: cell-based; settings: ADC, Table 8
Procedure: as §1

[13] = system: WM2664; experiment: as above; assay type: cell-based; settings: ADC, Table 8
Procedure: as §1

[14] = system: SKBR3; experiment: as above; assay type: cell-based; settings: ADC, Table 8
Procedure: as §1

[15] = system: cynomolgus monkeys; experiment: In vivo safety study of hCR011 ADCs, hematology and clinical chemistry (Example 97); set-up: species or system cynomolgus monkey; settings: 3 mg/kg, four weekly i.v. doses, DAR=4
Procedure: In vivo safety studies were done in naive cynomolgus monkeys. Studies had 1 or 2 animals/group/timepoint of hCR011-MC-VC-MMAE (DAR=4) or hCR011-Example 60 (DAR=4). Animals were administered four weekly doses of 3, 5, or 10 mg/kg of ADC via intravenous (slow bolus) injection. Baseline measurements for hematology and clinical chemistry parameters were taken from blood drawn at one or two time points prior to dosing, and post-dose timepoints were collected at day 8, and also on days 15 and 29 (hematology only).

**Q.** What does the source list for `CC[C@H](C)[C@@H]([C@@H](CC(=O)N1CCC[C@H]1[C@H](OC)[C@@H](C)C(=O)N[C@H](CO)Cc1ccccc1)OC)N(C)C(=O)[C@@H](NC(=O)[C@H](CO)N(C)C)C(C)C` [Ex. 8 (compound 1.1)] (X2-V[Dil][Dolaproine][Phe(ol)])?
**A.** IC50 [1]: 2 nM; IC50 [2]: 5 nM; IC50 [3]: 4 nM; IC50 [4]: 2 nM

**Q.** For `CC[C@H](C)[C@@H]([C@@H](CC(=O)N1CCC[C@H]1[C@H](OC)[C@@H](C)C(=O)N[C@H](CO)Cc1ccccc1)OC)N(C)C(=O)[C@@H](NC(=O)[C@H](CO)N(C)C)C(C)C` [Example 8] (X2-V[Dil][Dolaproine][Phe(ol)]), which IC50 [5] is on record?
**A.** 2.9 nM

**Q.** And the logD [6]?
**A.** 1.6

**Q.** And the IC50 [7]?
**A.** 6.6 nM

**Q.** And the IC50 [8]?
**A.** 1.4 nM

**Q.** What about the IC50 [9] of the same molecule?
**A.** 0.7 nM

**Q.** For `CC[C@H](C)[C@@H]([C@@H](CC(=O)N1CCC[C@H]1[C@H](OC)[C@@H](C)C(=O)NCCc1ccccc1)OC)N(C)C(=O)[C@@H](NC(=O)[C@H](CO)N(C)C(=O)OCc1ccc(NC(=O)[C@H](CCC(=O)O)NC(=O)[C@H](C)NC(=O)[C@@H](CC(C)C)NC(=O)CCN2C(=O)C=CC2=O)cc1)C(C)C` [Example 78] ({Propanoyl(3-maleimido)}-[dL]AE[PABC][NMeS]V[Dil][Dolaproine]-NHPhenethyl), which “Tolerated at 80 mg/kg in rats” value [10] is on record?
**A.** Yes

**Q.** For `CC[C@H](C)[C@@H]([C@@H](CC(=O)N1CCC[C@H]1[C@H](OC)[C@@H](C)C(=O)N[C@@H](Cc1ccccc1)c1nccs1)OC)N(C)C(=O)[C@@H](NC(=O)[C@H](CO)N(C)C(=O)OCc1ccc(NC(=O)[C@H](CCC(=O)O)NC(=O)[C@H](C)NC(=O)[C@@H](CC(C)C)NC(=O)CCN2C(=O)C=CC2=O)cc1)C(C)C` [Example 79] ({Propanoyl(3-maleimido)}-[dL]AE[PABC][NMeS]V[Dil][Dolaproine]-Doe), which “Tolerated at 80 mg/kg in rats” value [10] is on record?
**A.** No

**Q.** Which “Tolerated at 80 mg/kg in rats” value [10] does the source give for `CC[C@H](C)[C@@H]([C@@H](CC(=O)N1CCC[C@H]1[C@H](OC)[C@@H](C)C(=O)N[C@@H](Cc1ccccc1)c1nccs1)OC)N(C)C(=O)[C@@H](NC(=O)[C@H](CO)N(C)C(=O)OCc1ccc(NC(=O)[C@H](CCC(=O)O)NC(=O)[C@H](C)NC(=O)[C@@H](CC(C)C)NC(=O)CCN2C(=O)C=CC2=O)cc1)[C@@H](C)CC` [Example 80] ({Propanoyl(3-maleimido)}-[dL]AE[PABC][NMeS]I[Dil][Dolaproine]-Doe) here?
**A.** Yes

**Q.** For `CC[C@H](C)[C@@H]([C@@H](CC(=O)N1CCC[C@H]1[C@H](OC)[C@@H](C)C(=O)N[C@H](C)[C@@H](O)c1ccccc1)OC)N(C)C(=O)[C@@H](NC(=O)[C@@H](NC)C(C)C)C(C)C` [MMAE, monomethyl auristatin E, reference compound] (H-[NMeV]V[Dil][Dolaproine]-X1), which IC50 [5] is on record?
**A.** 0.2 nM

**Q.** And the logD [6]?
**A.** 1.9

**Q.** And the IC50 [1]?
**A.** 0.3 nM

**Q.** What about the IC50 [2] of the same molecule?
**A.** 0.6 nM

**Q.** And the IC50 [3]?
**A.** 0.4 nM

**Q.** And the IC50 [4]?
**A.** 0.2 nM

**Q.** And the IC50 [7]?
**A.** 0.1 nM

**Q.** What about the IC50 [8] of the same molecule?
**A.** 0.1 nM

**Q.** And the IC50 [9]?
**A.** 0.05 nM

**Q.** Which IC50 [5] does the source give for `CC[C@H](C)[C@@H]([C@@H](CC(=O)N1CCC[C@H]1[C@H](OC)[C@@H](C)C(=O)N[C@@H](Cc1ccccc1)C(=O)O)OC)N(C)C(=O)[C@@H](NC(=O)[C@@H](NC)C(C)C)C(C)C` [MMAF, monomethyl auristatin F, reference compound] (H-[NMeV]V[Dil][Dolaproine]F-OH) here?
**A.** 44 nM

**Q.** And the logD [6]?
**A.** 0.03

**Q.** And the IC50 [7]?
**A.** 47 nM

**Q.** And the IC50 [8]?
**A.** 41 nM

**Q.** And the IC50 [9]?
**A.** 44 nM

**Q.** For “hCR011-MC-VC-MMAE: "conjugate hCR011-MC-VC-MMAE" "(DAR=4)" [reference compound]”, which “neutrophil counts post-dose on Day 8, FIG. 21” value [11] is on record?
**A.** a decrease relative to baseline

**Q.** What about the “IC50, HCC2218” value [12] of the same molecule?
**A.** >30K

**Q.** What about the “IC50, A2058” value ([1]; Table 8) of the same molecule?
**A.** 24.3 µg/mL

**Q.** And the “IC50, A2058” value ([1]; Table 9)?
**A.** 11.118 µg/mL

**Q.** And the “IC50, WM2664” value [13]?
**A.** 4.468 µg/mL

**Q.** What about the “IC50, SKBR3” value [14] of the same molecule?
**A.** 2.69 µg/mL

**Q.** And the “IC50, CALU1” value ([2]; Table 8)?
**A.** >30K

**Q.** And the “IC50, CALU1” value ([2]; Table 9)?
**A.** 14251 ng/mL

**Q.** And the “IC50, SKMEL28” value ([3]; ADC, Table 9, 96 h)?
**A.** 14.02 µg/mL

**Q.** And the “IC50, SKMEL5” value ([4]; Table 8)?
**A.** 0.916 µg/mL

**Q.** And the “IC50, SKMEL5” value ([4]; Table 9)?
**A.** 0.668 µg/mL

**Q.** And the “neutrophil counts post-administration, FIG. 17” value [15]?
**A.** a decrease relative to baseline on days 8, 15, and 29
